Reference: patent US20040259865A1, “Pyrimidone compounds and pharmaceutical compositions containing the same” (priority 2001, published 2004)
Several values for one entry are separate records, joined by “and”; a condition that tells them apart may be missing. Equal values may be shown once.

Assays:
[1] = target: T1, human adenosine A2b receptor (Homo sapiens, UniProt P29275); test: Inhibition of NECA-stimulated production of cAMP in adenosine A2b receptor-expressing cells; type: cell-based
T1 construct: expressed in transfected cells; host or cells: CHOK1 cells
T1 sequence (P29275 1-332): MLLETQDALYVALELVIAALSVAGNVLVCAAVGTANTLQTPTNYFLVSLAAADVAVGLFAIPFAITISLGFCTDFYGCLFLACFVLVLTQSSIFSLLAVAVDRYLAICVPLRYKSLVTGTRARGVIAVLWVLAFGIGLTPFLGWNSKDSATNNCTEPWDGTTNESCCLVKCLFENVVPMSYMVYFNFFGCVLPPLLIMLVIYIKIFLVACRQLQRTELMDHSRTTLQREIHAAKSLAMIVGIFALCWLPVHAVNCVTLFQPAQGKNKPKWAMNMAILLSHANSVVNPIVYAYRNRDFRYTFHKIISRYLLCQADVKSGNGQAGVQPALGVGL
Description: CHOK1 cells where a human adenosine A2b receptor had been expressed in excess were plated onto a 24-well plate at a density of 1.5×10^5 cells/well, cultured overnight, and used in the experiment. […] That is, the adhering cells were washed twice with 2 ml/well Krebs-Ringer buffer solution (containing 0.1% BSA; pH 7.4) and pre-incubated for 30 minutes in a volume of 0.5 ml/well. […] After pre-incubation for 15 minutes, the reaction was terminated with 0.1 N HCl in a volume of 300 μl/well. Measurement of intracellular cAMP was carried out using a cAMP enzyme immunoassay kit produced by Amersham.

[2] = test system: SD IGS rats; test: Evaluation of defecation-promoting action (Tables 8 and 10); type: in vivo, rat; details: 3 mg/kg oral; Table 8, n = 4 cages/group
From the text: For example, the defecation-promoting actions of 8-phenyltheophylline (“8-PT” in the table below) and 5-[6-amino-8-(3-fluorophenyl)-9H-9-purinyl]-1-methyl-1,2-di hydro-2-pyridinone (Compound II in the table below) disclosed in Example Number 5 described in WO 2001/2400 were as shown below. 8-PT can be easily produced according to the description of Drug Development Research 47: 45-53 (1999), or is easily available as a commercial product (in this test, it was purchased from Sigma).
That is, SD IGS rats (6- to 7-weeks-old, from Charles River) were placed in cages (3 animals/cage) and preliminarily allowed food and water ad libitum and raised for 1 week. On the day of the experiment, their weight was measured, a water-absorbing sheet was placed below each cage, and the animals were fasted but allowed water ad libitum throughout the experiment. Thee hours after fasting was initiated, the fecal pellets were recovered from each cage and observed for abnormality before the experiment, and then the compound suspended in 0.5% (w/v) methyl cellulose (MC) was orally administered in a dose of 5 ml/kg. On one hand, 0.5% (w/v) MC only was orally given to the control group. After administration of the compound, the rats were returned to the cage provided with a new water-absorbing sheet, and 180 minutes after the administration, the fecal pellets on the water-absorbing sheet were recovered from each cage, and the external appearance was observed, and the number of fecal pellets was counted. The number of fecal pellets is expressed per each cage.

[3] = test system: SD IGS rats; test: Defecation-promoting action in rat (Test Example 2); type: in vivo; details: for The number of fecalpellets/3 rats: 180 minutes after administration; for Defecation-promoting action (in words): Table 4
Description: (§1) SD IGS rats (6-weeks-old, from Charles River) were placed in cages (3 animals/cage) and preliminarily allowed food and water ad libitum and raised for 1 week. On the day of the experiment, their weight was measured, a water-absorbing sheet was placed below each cage, and the animals were fasted but allowed water ad libitum throughout the experiment. Three hours after fasting was initiated, the fecal pellets were recovered from each cage and observed for abnormality before the experiment, and then the compound suspended or dissolved in 0.5% (W/V) methyl cellulose (MC) was orally administered into each rat in a dose of 5 ml/kg. On one hand, 0.5% (W/V) MC only was orally given to the control group. After administering the compound, the rats were returned to the cage provided with anew water-absorbing sheet of known weight, and 180 minutes after the administration, the fecal pellets on the water-absorbing sheet were recovered from each cage, and the external appearance was observed, and the number of fecal pellets was counted. The number of fecal pellets is expressed per each cage (Table 4). After the fecal pellets were recovered, the water-absorbing sheet was weighed, and the weight determined by subtracting the initial weight of the water-adsorbing sheet from the weight after the experiment was regarded as the volume of urine and expressed as the volume of urine per 100 g of the body weight (Table 4).

[4] = Urine volume / diuretic action in rat (Test Example 2); type: in vivo; details: for Urine Volume (g/100 g body weight): 180 minutes
Description: as §1

[5] = test system: colon tract; test: Inhibitory effect of adenosine receptor antagonist on suppressing action of NECA on Carbachol-stimulated contraction of the colon tract; design: species or system rat; details: for Contraction (%) Mean: Carbachol 0.3 μM + NECA 1 μM = 0%, Carbachol 0.3 μM = 100%; for Inhibition of the suppressing effect of NECA on the contraction (in words): rat colon tract, Carbachol + NECA
Description: The abdomen of a rat under anesthesia with ether was opened, and from the rectum to the cecum was excised therefrom and soaked in ice-cooled Tyrode solution (containing 136 mM NaCl, 2.7 mM KCl, 0.4 mM NaH2PO4.2H2O, 5.6 mM glucose, 11.9 mM NaHCO3, 1 mM MgCl2.6H2O, 1.8 mM CaCl2). Surrounding connective tissues were removed, and the intestinal tract was cut at positions apart by 1.5 cm from the rectum and by 3 cm from the cecum, to give a colon tract of about 3 cm in full length. Both the terminals of the colon tract were pinched respectively with Serrefines (trade name) to which a string had been connected, and the colon tract with the side of the cecum facing upward was immediately suspended in a Magnus tube filled with Tyrode solution previously warmed at 37° C., and then equilibrated by bubbling with a gas (O2/CO2=95/5). The string connected to the Serrefines (trade name) at the side of the cecum was suspended, and the change in the length of the colon tract was detected with an amplifier for strain pressure (Nihon Kohden Corporation).
In the experiment, 3 samples were used.

[6] = test system: SD IGS rats; test: Contribution of A2b inhibition to defecation-promoting action (Test Example 3); type: in vivo, rat; details: 180 minutes
Description: as §1
After administering the compounds, the rats were returned to the cage under which a new water-absorbing sheet had been installed, and after 180 minutes, the fecal pellets on the water-absorbing sheet were recovered from each cage, and the outward appearance was observed and the number of fecal pellets was counted. The number of fecal pellets is expressed per cage (Table 5).

[7] = target: T2, human adenosine A1 receptor (Homo sapiens, UniProt P30542); test: Ability to bind to adenosine A1 receptor (3H-CCPA); type: binding; details: CHOK1 membranes, Cheng-Prusoff
T2 sequence (P30542 1-326): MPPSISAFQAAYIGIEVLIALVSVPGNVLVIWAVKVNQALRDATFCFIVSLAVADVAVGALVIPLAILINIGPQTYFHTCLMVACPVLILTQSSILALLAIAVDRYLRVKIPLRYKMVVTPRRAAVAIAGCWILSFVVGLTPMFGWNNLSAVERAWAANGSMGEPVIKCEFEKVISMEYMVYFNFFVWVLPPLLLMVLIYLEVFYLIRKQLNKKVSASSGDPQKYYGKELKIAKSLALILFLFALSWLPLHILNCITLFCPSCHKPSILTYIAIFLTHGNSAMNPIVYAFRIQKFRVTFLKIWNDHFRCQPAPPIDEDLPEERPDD
Description: To 0.45 ml of this membrane sample suspension were added 0.025 ml of 60 nM tritium-labeled chlorocyclopentyl adenosine (3H-CCPA, from NEN Ltd.) and 0.025 ml test compound. This mixture was left at 30° C. for 120 minutes, filtered rapidly under suction through a glass fiber filter (GF/B, from Whatman), and immediately washed twice with 5 ml of 50 mM water-cooled Tris-HCl buffer. Thereafter, the glass fiber filter was transferred to a vial, a scintillator was added thereto, and the radioactivity on the filter was measured by a liquid scintillation counter.
Inhibition (%)=[1−{binding in the presence of the test compound-non-specific binding)/(total binding-non-specific binding)}]×100
In the above formula, the total binding means ^3H—CCPA-bound radioactivity in the absence of the test compound; the non-specific binding means ^3H-CCPA-bound radioactivity in the presence of 100 μM RPIA ([R]-[1-methyl-2-phenylethyl]adenosine); and the binding in the presence of the test compound means ^3H-CCPA-bound radioactivity in the […] of the test compound at predetermined concentrations. The inhibition constant (Ki value) in the table was determined from the formula of Cheng-Prusoff.

SMILES | IC50 [1] | The number of fecalpellets/3 rats [2] | The number of fecalpellets/3 rats ([3]; 3 mg/kg oral) | The number of fecalpellets/3 rats ([3]; 10 mg/kg oral) | Diarrhea ([3]; rat, oral) | Defecation-promoting action (in words) ([3]; rat, oral) | Urine Volume (g/100 g body weight) ([4]; 3 mg/kg oral) | Urine Volume (g/100 g body weight) ([4]; 10 mg/kg oral) | Diuretic action (comparison in words) ([4]; rat, oral) | Contraction (%) Mean ([5]; antagonist 0.1 μM) | Contraction (%) Mean ([5]; antagonist 0.4 μM) | Contraction (%) Mean ([5]; antagonist 1.4 μM) | Contraction (%) Mean ([5]; antagonist 4.4 μM) | Inhibition of the suppressing effect of NECA on the contraction (in words) [5] | The number of fecalpellets/3 rats ([6]; 3 mg/kg, without KW 6002) | Ki [7] | The number of fecalpellets/3 rats ([3]; 1 mg/kg oral) | Urine Volume (g/100 g body weight) ([4]; 1 mg/kg oral) | The number of fecalpellets/3 rats ([6]; KW 3902 0 mg/kg + KW 6002 (1 mg/kg))
Nc1ncc(-c2ccncc2)c(-c2ccco2)n1 [Compound I, 4-(2-Furyl)-5-(4-pyridyl)-2-pyrimidinyl amine] | 8.4 nM | 19.75 ± 2.50 fecalpellets/3 rats and 20.75 ± 3.15 fecalpellets/3 rats | 16.33 ± 1.82 fecalpellets/3 rats | 30.00 ± 2.79 fecalpellets/3 rats | did not cause diarrhea | evidently higher defecation-promoting action than the A1-selective antagonist KW3902 or the A2a-selective antagonist KW6002 | 0.79 ± 0.09 g/100 g body weight | 1.23 ± 0.13 g/100 g body weight | weaker diuretic action than the A1-selective antagonist KW3902 | 71.5% | 111.0% | 122.0% | 85.9% | inhibited the suppressing effect of NECA on the contraction | 34.00 ± 1.00 fecalpellets/3 rats | 660 nM | – | – | –
CCn1c(=O)c2c(nc(/C=C/c3ccc(OC)c(OC)c3)n2C)n(CC)c1=O [KW 6002] | – | – | 7.00 ± 0.86 fecalpellets/3 rats | – | – | low defecation-promoting action | 0.76 ± 0.05 g/100 g body weight | – | – | 5.2% | 1.1% | −2.9% | −3.9% | did not show any inhibitory effect | – | 22600 nM | 6.67 ± 1.63 fecalpellets/3 rats | 0.72 ± 0.07 g/100 g body weight | 7.00 ± 1.58 fecalpellets/3 rats
